Where two headings read alike, the source gives them in different places.
Legend:
[1] = test system: human prostate LNCap tumor cell line; experiment: In vitro cell culture growth assay (MTS), LNCap; settings: read-out: IC50 LNCap
Human mTOR (FLAG-TOR) = Human mTOR (FLAG-TOR) (Homo sapiens, UniProt P42345); experiment: mTOR kinase assay (DELFIA format, purified enzyme); type: biochemical; settings: read-out: IC50 mTOR
PI3K-α = PI3K-α (Homo sapiens, UniProt P42336); experiment: PI3K-alpha fluorescence polarization assay
PI3K-α, sequence (P42336 whole entry, species assumed): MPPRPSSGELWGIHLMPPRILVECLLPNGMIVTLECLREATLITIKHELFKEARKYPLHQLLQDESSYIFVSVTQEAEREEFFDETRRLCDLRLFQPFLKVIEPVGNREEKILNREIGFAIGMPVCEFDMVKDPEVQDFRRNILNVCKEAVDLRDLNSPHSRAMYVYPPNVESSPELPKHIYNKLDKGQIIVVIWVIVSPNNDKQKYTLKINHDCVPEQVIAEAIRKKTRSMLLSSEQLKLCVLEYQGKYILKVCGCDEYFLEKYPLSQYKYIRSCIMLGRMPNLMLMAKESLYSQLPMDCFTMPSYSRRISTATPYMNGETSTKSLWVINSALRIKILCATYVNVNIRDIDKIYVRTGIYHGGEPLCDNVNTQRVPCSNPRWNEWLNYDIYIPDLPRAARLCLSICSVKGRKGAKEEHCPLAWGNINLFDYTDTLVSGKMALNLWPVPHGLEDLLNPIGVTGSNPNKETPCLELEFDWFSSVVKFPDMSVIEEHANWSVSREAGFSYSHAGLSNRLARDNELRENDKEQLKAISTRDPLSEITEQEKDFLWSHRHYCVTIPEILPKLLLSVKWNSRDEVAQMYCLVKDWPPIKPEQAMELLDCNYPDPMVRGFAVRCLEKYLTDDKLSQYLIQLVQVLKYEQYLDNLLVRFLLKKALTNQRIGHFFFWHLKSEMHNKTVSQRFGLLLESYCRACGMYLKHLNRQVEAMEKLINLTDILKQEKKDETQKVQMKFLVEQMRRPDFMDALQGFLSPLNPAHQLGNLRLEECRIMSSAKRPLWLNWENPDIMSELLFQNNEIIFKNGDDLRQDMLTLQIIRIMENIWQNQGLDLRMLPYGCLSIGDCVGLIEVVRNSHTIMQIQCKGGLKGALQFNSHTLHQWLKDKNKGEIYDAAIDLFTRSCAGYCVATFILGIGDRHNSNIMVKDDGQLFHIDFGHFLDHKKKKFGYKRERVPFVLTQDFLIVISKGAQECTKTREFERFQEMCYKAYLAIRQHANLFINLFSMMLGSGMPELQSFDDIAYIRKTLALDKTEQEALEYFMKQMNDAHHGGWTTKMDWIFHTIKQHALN
PI3K-α, sequence (P27986 whole entry partner, species assumed): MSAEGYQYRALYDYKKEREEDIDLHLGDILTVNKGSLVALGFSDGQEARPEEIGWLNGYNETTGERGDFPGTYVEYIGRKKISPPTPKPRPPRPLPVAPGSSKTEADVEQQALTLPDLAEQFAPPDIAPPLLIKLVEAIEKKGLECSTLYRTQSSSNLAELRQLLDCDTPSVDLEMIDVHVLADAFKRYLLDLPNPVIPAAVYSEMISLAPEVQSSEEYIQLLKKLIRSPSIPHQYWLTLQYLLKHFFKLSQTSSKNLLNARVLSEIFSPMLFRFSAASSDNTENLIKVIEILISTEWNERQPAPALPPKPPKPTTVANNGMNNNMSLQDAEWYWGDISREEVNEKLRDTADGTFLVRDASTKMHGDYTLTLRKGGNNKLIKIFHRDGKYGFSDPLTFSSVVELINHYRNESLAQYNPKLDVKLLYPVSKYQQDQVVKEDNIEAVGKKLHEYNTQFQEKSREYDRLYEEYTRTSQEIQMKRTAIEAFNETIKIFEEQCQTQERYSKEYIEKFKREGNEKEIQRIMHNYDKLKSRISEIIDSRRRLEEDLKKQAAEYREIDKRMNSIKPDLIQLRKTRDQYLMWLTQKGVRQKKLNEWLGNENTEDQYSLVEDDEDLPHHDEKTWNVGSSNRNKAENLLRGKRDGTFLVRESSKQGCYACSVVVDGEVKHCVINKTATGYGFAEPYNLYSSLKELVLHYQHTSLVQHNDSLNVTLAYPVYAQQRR

PI3K-γ = PI3K-γ (Homo sapiens, UniProt P48736); experiment: PI3K-gamma fluorescence polarization assay; settings: read-out: IC50 PI3Kγ
PI3K-γ, sequence (P48736 whole entry, species assumed): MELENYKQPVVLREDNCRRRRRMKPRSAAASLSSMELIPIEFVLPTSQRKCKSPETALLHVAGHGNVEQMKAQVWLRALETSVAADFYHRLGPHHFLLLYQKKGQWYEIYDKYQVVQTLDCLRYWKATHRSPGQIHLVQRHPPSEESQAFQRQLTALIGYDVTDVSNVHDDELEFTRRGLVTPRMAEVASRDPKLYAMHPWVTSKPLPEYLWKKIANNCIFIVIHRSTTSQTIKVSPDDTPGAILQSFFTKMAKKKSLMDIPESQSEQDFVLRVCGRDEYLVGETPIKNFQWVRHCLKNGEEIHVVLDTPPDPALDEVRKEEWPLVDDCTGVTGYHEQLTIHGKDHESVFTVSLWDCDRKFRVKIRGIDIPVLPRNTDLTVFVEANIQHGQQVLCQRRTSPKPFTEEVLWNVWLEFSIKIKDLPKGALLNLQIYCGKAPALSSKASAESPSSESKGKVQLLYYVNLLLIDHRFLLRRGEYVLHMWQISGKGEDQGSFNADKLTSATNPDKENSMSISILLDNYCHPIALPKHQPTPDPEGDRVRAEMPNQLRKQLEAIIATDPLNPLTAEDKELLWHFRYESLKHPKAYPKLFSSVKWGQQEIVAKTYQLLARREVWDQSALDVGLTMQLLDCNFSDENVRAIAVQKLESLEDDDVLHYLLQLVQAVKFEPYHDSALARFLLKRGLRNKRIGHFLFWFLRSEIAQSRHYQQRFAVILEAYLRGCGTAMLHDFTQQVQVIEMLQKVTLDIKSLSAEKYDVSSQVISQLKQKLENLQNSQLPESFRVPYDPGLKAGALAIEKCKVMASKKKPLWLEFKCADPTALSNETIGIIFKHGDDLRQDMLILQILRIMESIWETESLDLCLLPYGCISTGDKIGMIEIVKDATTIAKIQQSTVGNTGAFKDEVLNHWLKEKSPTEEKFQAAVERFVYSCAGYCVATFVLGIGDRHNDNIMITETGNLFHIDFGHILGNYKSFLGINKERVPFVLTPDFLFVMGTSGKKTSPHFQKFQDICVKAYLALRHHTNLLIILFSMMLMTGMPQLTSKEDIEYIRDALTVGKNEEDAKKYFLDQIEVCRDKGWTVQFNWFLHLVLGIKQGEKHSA

Human mTOR (FLAG-TOR), sequence (P42345 1360-2549 limits assumed): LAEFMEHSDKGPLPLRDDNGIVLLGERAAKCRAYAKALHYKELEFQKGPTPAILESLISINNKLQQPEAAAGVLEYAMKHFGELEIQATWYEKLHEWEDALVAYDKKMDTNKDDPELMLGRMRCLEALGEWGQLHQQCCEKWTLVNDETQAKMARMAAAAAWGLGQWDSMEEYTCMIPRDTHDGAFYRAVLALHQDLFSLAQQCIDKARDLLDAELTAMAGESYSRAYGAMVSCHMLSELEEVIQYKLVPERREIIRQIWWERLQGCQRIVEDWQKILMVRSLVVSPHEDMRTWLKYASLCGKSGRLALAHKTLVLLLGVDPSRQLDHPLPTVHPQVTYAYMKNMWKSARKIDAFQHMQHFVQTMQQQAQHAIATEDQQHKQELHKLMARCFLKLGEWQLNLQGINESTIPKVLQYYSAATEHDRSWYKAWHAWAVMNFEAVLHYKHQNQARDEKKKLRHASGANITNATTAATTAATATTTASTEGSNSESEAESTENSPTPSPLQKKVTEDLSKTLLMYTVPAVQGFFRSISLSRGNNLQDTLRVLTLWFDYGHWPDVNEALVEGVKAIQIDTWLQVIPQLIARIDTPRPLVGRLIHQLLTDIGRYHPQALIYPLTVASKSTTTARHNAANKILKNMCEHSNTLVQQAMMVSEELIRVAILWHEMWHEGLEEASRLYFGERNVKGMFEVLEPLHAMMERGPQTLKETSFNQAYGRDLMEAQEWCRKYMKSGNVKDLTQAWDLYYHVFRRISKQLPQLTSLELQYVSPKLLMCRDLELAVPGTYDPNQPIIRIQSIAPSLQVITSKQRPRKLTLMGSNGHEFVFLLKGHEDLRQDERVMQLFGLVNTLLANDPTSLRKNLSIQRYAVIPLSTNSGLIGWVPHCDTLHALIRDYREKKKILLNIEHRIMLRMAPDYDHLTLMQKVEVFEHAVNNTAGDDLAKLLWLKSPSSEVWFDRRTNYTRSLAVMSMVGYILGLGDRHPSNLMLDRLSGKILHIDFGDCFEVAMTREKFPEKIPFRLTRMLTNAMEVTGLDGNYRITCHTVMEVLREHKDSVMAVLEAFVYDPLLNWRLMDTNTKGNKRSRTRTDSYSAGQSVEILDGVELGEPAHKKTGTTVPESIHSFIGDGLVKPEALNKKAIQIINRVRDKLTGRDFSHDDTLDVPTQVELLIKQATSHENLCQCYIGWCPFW

For FC(F)c1nc2ccccc2n1-c1nc(N2CC3CCC(C2)O3)nc(N2CC3CCC(C2)O3)n1 [Example 138, 2-(difluoromethyl)-1-(4,6-di-8-oxa-3-azabicyclo[3.2.1]oct-3-yl-1,3,5-triazin-2-yl)-1H-benzimidazole], the IC50 ([1]; Homo sapiens, LNCaP, 72 h) was 680 nM and the IC50 (Human mTOR (FLAG-TOR)) was 43.5 nM.
Work on O=C(Nc1ccc(-c2nc(OCCN3CCCCC3)nc(N3CC4CCC(C3)O4)n2)cc1)Nc1cccnc1 [Example 173, 1-{4-[4-(8-oxa-3-azabicyclo[3.2.1]oct-3-yl)-6-(2-piperidin-1-ylethoxy)-1,3,5-triazin-2-yl]phenyl}-3-pyridin-3-ylurea] yielded an IC50 ([1]; Homo sapiens, LNCaP, 72 h) of 2500 nM, an IC50 (Human mTOR (FLAG-TOR)) of 84 nM and an IC50 (PI3K-α; read-out: IC50 PI3Kα) of 1210 nM.
With CN(C)CCOc1ccc(NC(=O)Nc2ccc(-c3nc(N4CCSCC4)nc(N4C5CCC4COC5)n3)cc2)cc1 [Example 365, 1-(4-(4-(3-oxa-8-azabicyclo[3.2.1]octan-8-yl)-6-thiomorpholino-1,3,5-triazin-2-yl)phenyl)-3-(4-(2-(dimethylamino)ethoxy)phenyl)urea] the IC50 ([1]; Homo sapiens, LNCaP, 72 h) was 280 nM and the IC50 (Human mTOR (FLAG-TOR)) was 10 nM.
Molecule CNC(=O)Nc1ccc(-c2nc(-c3ccc(NC(=O)Nc4cccnc4)cc3)nc(N3CCOCC3)n2)cc1 [Example 467, 1-methyl-3-[4-(4-morpholin-4-yl-6-{4-[(pyridin-3-ylcarbamoyl)amino]phenyl}-1,3,5-triazin-2-yl)phenyl]urea] has an IC50 ([1]; Homo sapiens, LNCaP, 72 h) of 170 nM and an IC50 (Human mTOR (FLAG-TOR)) of under 1 nM.
O=C(Nc1ccncc1)Nc1ccc(-c2nc(N3CCN(C(=O)c4ccncc4)CC3)nc(N3CC4CCC(C3)O4)n2)cc1 [Example 113, 1-{4-[4-(4-isonicotinoylpiperazin-1-yl)-6-(8-oxa-3-azabicyclo[3.2.1]oct-3-yl)-1,3,5-triazin-2-yl]phenyl}-3-pyridin-4-ylurea] showed an IC50 ([1]; Homo sapiens, LNCaP, 72 h) of 120 nM and an IC50 (Human mTOR (FLAG-TOR)) of 3.7 nM.
In the case of CN1CCN(c2ccc(Nc3nc(-c4ccc(NC(=O)Nc5cccnc5)cc4)nc(N4CC5CCC(C4)O5)n3)cc2)CC1 [Example 207, 1-{4-[4-{[4-(4-methylpiperazin-1-yl)phenyl]amino}-6-(8-oxa-3-azabicyclo[3.2.1]oct-3-yl)-1,3,5-triazin-2-yl]phenyl}-3-pyridin-3-ylurea], the IC50 ([1]; Homo sapiens, LNCaP, 72 h) is reported as 33.3 nM and the IC50 (Human mTOR (FLAG-TOR)) is reported as 0.84 nM.
Work on CC(C)Nc1nc(-c2ccc(NC(=O)NC3CC3)cc2)nc(N2CC3CCC(C2)O3)n1 [Example 213, 1-cyclopropyl-3-(4-{4-[(1-methylethyl)amino]-6-(8-oxa-3-azabicyclo[3.2.1]oct-3-yl)-1,3,5-triazin-2-yl}phenyl)urea] yielded an IC50 ([1]; Homo sapiens, LNCaP, 72 h) of 420 nM, an IC50 (Human mTOR (FLAG-TOR)) of 9.5 nM and an IC50 (PI3K-α; read-out: IC50 PI3Kα) of 5280 nM.
Work on CN1CCN(c2ccc(NC(=O)Nc3ccc(-c4nc(N5CC6CCC(C5)O6)nc(N5C6CCC5COC6)n4)cc3)cc2)CC1 [Example 303, 1-[4-(4-methylpiperazin-1-yl)phenyl]-3-{4-[4-(3-oxa-8-azabicyclo[3.2.1]oct-8-yl)-6-(8-oxa-3-azabicyclo[3.2.1]oct-3-yl)-1,3,5-triazin-2-yl]phenyl}urea] yielded an IC50 ([1]; Homo sapiens, LNCaP, 72 h) of 0.8 nM and an IC50 (Human mTOR (FLAG-TOR)) of 17 nM.
Molecule FC(F)c1nc2ccccc2n1-c1nc(N2CCOCC2)nc(N2CC3CCC(C2)O3)n1 [Example 139, 2-(difluoromethyl)-1-[4-morpholin-4-yl-6-(8-oxa-3-azabicyclo[3.2.1]oct-3-yl)-1,3,5-triazin-2-yl]-1H-benzimidazole] has an IC50 ([1]; Homo sapiens, LNCaP, 72 h) of 180 nM and an IC50 (Human mTOR (FLAG-TOR)) of 74 nM.
Molecule CCN(C)c1nc(-c2ccc(NC(=O)Nc3cccnc3)cc2)nc(N2CC3CCC(C2)O3)n1 [Example 202, 1-(4-{4-[ethyl(methyl)amino]-6-(8-oxa-3-azabicyclo[3.2.1]oct-3-yl)-1,3,5-triazin-2-yl}phenyl)-3-pyridin-3-ylurea] has an IC50 ([1]; Homo sapiens, LNCaP, 72 h) of 700 nM and an IC50 (Human mTOR (FLAG-TOR)) of 5.5 nM.
In the case of O=C(Nc1ccc(-c2nc(Nc3ccc(N4CCNCC4)cc3)nc(N3CC4CCC(C3)O4)n2)cc1)Nc1cccnc1 [Example 208, 1-(4-{4-(8-oxa-3-azabicyclo[3.2.1]oct-3-yl)-6-[(4-piperazin-1-ylphenyl)amino]-1,3,5-triazin-2-yl}phenyl)-3-pyridin-3-ylurea], the IC50 ([1]; Homo sapiens, LNCaP, 72 h) is reported as 50 nM and the IC50 (Human mTOR (FLAG-TOR)) is reported as 0.5 nM.
O=C(Nc1ccc(-c2nc(NCCO)nc(N3CC4CCC(C3)O4)n2)cc1)Nc1cccnc1 [Example 153, 1-(4-{4-[(2-hydroxyethyl)amino]-6-(8-oxa-3-azabicyclo[3.2.1]oct-3-yl)-1,3,5-triazin-2-yl}phenyl)-3-pyridin-3-ylurea] was tested, and the IC50 ([1]; Homo sapiens, LNCaP, 72 h) was 4200 nM, the IC50 (Human mTOR (FLAG-TOR)) was 15 nM and the IC50 (PI3K-α; read-out: IC50 PI3Kα) was 868 nM.
CNC(=O)Nc1ccc(-c2nc(-c3ccc(NC(=O)Nc4ccncc4)cc3)nc(N3CCOCC3)n2)cc1 [Example 468, 1-methyl-3-[4-(4-morpholin-4-yl-6-{4-[(pyridin-4-ylcarbamoyl)amino]phenyl}-1,3,5-triazin-2-yl)phenyl]urea] was tested, and the IC50 ([1]; Homo sapiens, LNCaP, 72 h) was 50 nM and the IC50 (Human mTOR (FLAG-TOR)) was under 1 nM.
CNC(=O)Nc1ccc(-c2nc(-c3ccc(NC(=O)Nc4cccc(C(N)=O)c4)cc3)nc(N3CCOCC3)n2)cc1 [Example 466, 3-({[4-(4-{4-[(methylcarbamoyl)amino]phenyl}-6-morpholin-4-yl-1,3,5-triazin-2-yl)phenyl]carbamoyl}amino) benzamide] was tested, and the IC50 ([1]; MTS cell growth assay, three days after drug treatment, LNCap cells) was 420 nM and the IC50 (Human mTOR (FLAG-TOR)) was 1 nM.
CCN(CC)c1nc(-c2ccc(NC(=O)Nc3cccnc3)cc2)nc(N2CC3CCC(C2)O3)n1 [Example 194, 1-{4-[4-(diethylamino)-6-(8-oxa-3-azabicyclo[3.2.1]oct-3-yl)-1,3,5-triazin-2-yl]phenyl}-3-pyridin-3-ylurea] was tested, and the IC50 ([1]; Homo sapiens, LNCaP, 72 h) was 600 nM and the IC50 (Human mTOR (FLAG-TOR)) was 27 nM.
In the case of CCC(C)Nc1nc(-c2ccc(NC(=O)Nc3cccnc3)cc2)nc(N2CC3CCC(C2)O3)n1 (stereo not shown) [Example 203, 1-{4-[4-(sec-butylamino)-6-(8-oxa-3-azabicyclo[3.2.1]oct-3-yl)-1,3,5-triazin-2-yl]phenyl}-3-pyridin-3-ylurea], the IC50 ([1]; Homo sapiens, LNCaP, 72 h) is reported as 78 nM and the IC50 (Human mTOR (FLAG-TOR)) is reported as 1 nM.
For O=C(Nc1ccc(-c2nc(NC(CO)CO)nc(N3CC4CCC(C3)O4)n2)cc1)Nc1cccnc1 [Example 204, 1-{4-[4-{[2-hydroxy-1-(hydroxymethyl)ethyl]amino}-6-(8-oxa-3-azabicyclo[3.2.1]oct-3-yl)-1,3,5-triazin-2-yl]phenyl}-3-pyridin-3-ylurea], the IC50 ([1]; Homo sapiens, LNCaP, 72 h) was 6000 nM and the IC50 (Human mTOR (FLAG-TOR)) was 3.5 nM.
CC(C)Nc1nc(-c2ccc(NC(=O)NCCO)cc2)nc(N2CC3CCC(C2)O3)n1 [Example 214, 1-(2-hydroxyethyl)-3-(4-{4-[(1-methylethyl)amino]-6-(8-oxa-3-azabicyclo[3.2.1]oct-3-yl)-1,3,5-triazin-2-yl}phenyl)urea] showed an IC50 ([1]; Homo sapiens, LNCaP, 72 h) of 700 nM, an IC50 (Human mTOR (FLAG-TOR)) of 2.9 nM and an IC50 (PI3K-α; read-out: IC50 PI3Kα) of 2670 nM.
Work on CNC(=O)Nc1ccc(-c2nc(N3CC4CCC(C3)O4)nc(N3CC4CCC(C3)O4)n2)cc1 [Example 26, 1-[4-(4,6-di-8-oxa-3-azabicyclo[3.2.1]oct-3-yl-1,3,5-triazin-2-yl)phenyl]-3-methylurea] yielded an IC50 ([1]; Homo sapiens, LNCaP, 72 h) of 190 nM, an IC50 (Human mTOR (FLAG-TOR)) of 2.5 nM and an IC50 (PI3K-α; read-out: IC50 PI3Kα) of 680 nM.
NCCCNc1nc(-c2ccc(NC(=O)Nc3cccnc3)cc2)nc(N2CC3CCC(C2)O3)n1 [Example 156, 1-(4-{4-[(3-aminopropyl)amino]-6-(8-oxa-3-azabicyclo[3.2.1]oct-3-yl)-1,3,5-triazin-2-yl}phenyl)-3-pyridin-3-ylurea] was tested, and the IC50 ([1]; Homo sapiens, LNCaP, 72 h) was 22000 nM, the IC50 (Human mTOR (FLAG-TOR)) was 53 nM and the IC50 (PI3K-α; read-out: IC50 PI3Kα) was 746 nM.
CN1CCN(c2ccc(Nc3nc(-c4ccc(NC(=O)Nc5ccc(C(N)=O)cc5)cc4)nc(N4CC5CCC(C4)O5)n3)cc2)CC1 [Example 318, 4-[({4-[4-{[4-(4-methylpiperazin-1-yl)phenyl]amino}-6-(8-oxa-3-azabicyclo[3.2.1]oct-3-yl)-1,3,5-triazin-2-yl]phenyl}carbamoyl)amino]benzamide] was tested, and the IC50 ([1]; Homo sapiens, LNCaP, 72 h) was 1000 nM, the IC50 (PI3K-γ) was 679 nM and the IC50 (PI3K-γ; listed as 334) was 680 nM. The IC50 (PI3K-α; read-out: IC50 PI3Kα) was 15.5 nM and the IC50 (PI3K-α; read-out: IC50 PI3Kα, listed as 334) was 16 nM.
In the case of O=C(O)CNC1CCN(c2nc(-c3ccc(NC(=O)Nc4ccncc4)cc3)nc(N3CC4CCC(C3)O4)n2)CC1 [Example 128, 2-(1-(4-(8-oxa-3-azabicyclo[3.2.1]octan-3-yl)-6-(4-(3-pyridin-4-ylureido)phenyl)-1,3,5-triazin-2-yl)piperidin-4-ylamino)acetic acid], the IC50 ([1]; Homo sapiens, LNCaP, 72 h) is reported as 30000 nM, the IC50 (Human mTOR (FLAG-TOR)) is reported as 31 nM and the IC50 (PI3K-α; read-out: IC50 PI3Kα) is reported as 1330 nM.
With CN1CCN(c2ccc(NC(=O)Nc3ccc(-c4nc(-c5ccc(NC(=O)NC6CC6)cc5)nc(N5CC6CCC(C5)O6)n4)cc3)cc2)CC1 [Example 146, 1-cyclopropyl-3-(4-{4-[4-({[4-(4-methylpiperazin-1-yl)phenyl]carbamoyl}amino)phenyl]-6-(8-oxa-3-azabicyclo[3.2.1]oct-3-yl)-1,3,5-triazin-2-yl}phenyl)urea] the IC50 ([1]; Homo sapiens, LNCaP, 72 h) was 5 nM, the IC50 (Human mTOR (FLAG-TOR)) was 3 nM and the IC50 (PI3K-α) was over 10000 nM.
CN1CCCN(c2nc(-c3ccc(NC(=O)Nc4cccnc4)cc3)nc(N3CC4CCC(C3)O4)n2)C1 [Example 172, 1-{4-[4-(3-methyltetrahydropyrimidin-1(2H)-yl)-6-(8-oxa-3-azabicyclo[3.2.1]oct-3-yl)-1,3,5-triazin-2-yl]phenyl}-3-pyridin-3-ylurea] was tested, and the IC50 ([1]; Homo sapiens, LNCaP, 72 h) was 9500 nM, the IC50 (Human mTOR (FLAG-TOR)) was 8 nM and the IC50 (PI3K-α; read-out: IC50 PI3Kα) was 435 nM.
O=C(Nc1ccc(-c2nc(N(CCO)CCO)nc(N3CC4CCC(C3)O4)n2)cc1)Nc1cccnc1 [Example 205, 1-(4-{4-[bis(2-hydroxyethyl)amino]-6-(8-oxa-3-azabicyclo[3.2.1]oct-3-yl)-1,3,5-triazin-2-yl}phenyl)-3-pyridin-3-ylurea] showed an IC50 ([1]; Homo sapiens, LNCaP, 72 h) of 400 nM and an IC50 (Human mTOR (FLAG-TOR)) of 2 nM.
Molecule O=C(Nc1ccc(-c2nc(N3CC4CCC(C3)O4)nc(N3C[C@@H]4C[C@H]3CN4)n2)cc1)Nc1cccnc1 [Example 206, 1-(4-{4-[(1S,4S)-2,5-diazabicyclo[2.2.1]hept-2-yl]-6-(8-oxa-3-azabicyclo[3.2.1]oct-3-yl)-1,3,5-triazin-2-yl}phenyl)-3-pyridin-3-ylurea] has an IC50 ([1]; Homo sapiens, LNCaP, 72 h) of 5100 nM and an IC50 (Human mTOR (FLAG-TOR)) of 56 nM.

— US20090304692A1, “TRIAZINE COMPOUNDS AS PI3 KINASE AND MTOR INHIBITORS” (Wyeth, priority 2008, published 2009)
